# In ChEMBL document CHEMBL5696442, “Discovery of type II inhibitors of TGFβ-activated kinase 1 (TAK1) and mitogen-activated protein kinase kinase kinase kinase 2 (MAP4K2)” (J Med Chem, 2015):
# Calls of active or inactive are those of the source. The calls are words filed in the database; no cut-off is given here.
# Key:
# [1] = biological target: Microtubule-associated serine/threonine-protein kinase 4 (Homo sapiens) (UniProt O15021); assay: Inhibition of MAST4 Lys2 labeling site in human Huh-7 cells at 1 uM by KiNativ Profiling analysis relative to control; format: cell-based
# Sequence of Microtubule-associated serine/threonine-protein kinase 4 (Homo sapiens) (O15021 whole entry): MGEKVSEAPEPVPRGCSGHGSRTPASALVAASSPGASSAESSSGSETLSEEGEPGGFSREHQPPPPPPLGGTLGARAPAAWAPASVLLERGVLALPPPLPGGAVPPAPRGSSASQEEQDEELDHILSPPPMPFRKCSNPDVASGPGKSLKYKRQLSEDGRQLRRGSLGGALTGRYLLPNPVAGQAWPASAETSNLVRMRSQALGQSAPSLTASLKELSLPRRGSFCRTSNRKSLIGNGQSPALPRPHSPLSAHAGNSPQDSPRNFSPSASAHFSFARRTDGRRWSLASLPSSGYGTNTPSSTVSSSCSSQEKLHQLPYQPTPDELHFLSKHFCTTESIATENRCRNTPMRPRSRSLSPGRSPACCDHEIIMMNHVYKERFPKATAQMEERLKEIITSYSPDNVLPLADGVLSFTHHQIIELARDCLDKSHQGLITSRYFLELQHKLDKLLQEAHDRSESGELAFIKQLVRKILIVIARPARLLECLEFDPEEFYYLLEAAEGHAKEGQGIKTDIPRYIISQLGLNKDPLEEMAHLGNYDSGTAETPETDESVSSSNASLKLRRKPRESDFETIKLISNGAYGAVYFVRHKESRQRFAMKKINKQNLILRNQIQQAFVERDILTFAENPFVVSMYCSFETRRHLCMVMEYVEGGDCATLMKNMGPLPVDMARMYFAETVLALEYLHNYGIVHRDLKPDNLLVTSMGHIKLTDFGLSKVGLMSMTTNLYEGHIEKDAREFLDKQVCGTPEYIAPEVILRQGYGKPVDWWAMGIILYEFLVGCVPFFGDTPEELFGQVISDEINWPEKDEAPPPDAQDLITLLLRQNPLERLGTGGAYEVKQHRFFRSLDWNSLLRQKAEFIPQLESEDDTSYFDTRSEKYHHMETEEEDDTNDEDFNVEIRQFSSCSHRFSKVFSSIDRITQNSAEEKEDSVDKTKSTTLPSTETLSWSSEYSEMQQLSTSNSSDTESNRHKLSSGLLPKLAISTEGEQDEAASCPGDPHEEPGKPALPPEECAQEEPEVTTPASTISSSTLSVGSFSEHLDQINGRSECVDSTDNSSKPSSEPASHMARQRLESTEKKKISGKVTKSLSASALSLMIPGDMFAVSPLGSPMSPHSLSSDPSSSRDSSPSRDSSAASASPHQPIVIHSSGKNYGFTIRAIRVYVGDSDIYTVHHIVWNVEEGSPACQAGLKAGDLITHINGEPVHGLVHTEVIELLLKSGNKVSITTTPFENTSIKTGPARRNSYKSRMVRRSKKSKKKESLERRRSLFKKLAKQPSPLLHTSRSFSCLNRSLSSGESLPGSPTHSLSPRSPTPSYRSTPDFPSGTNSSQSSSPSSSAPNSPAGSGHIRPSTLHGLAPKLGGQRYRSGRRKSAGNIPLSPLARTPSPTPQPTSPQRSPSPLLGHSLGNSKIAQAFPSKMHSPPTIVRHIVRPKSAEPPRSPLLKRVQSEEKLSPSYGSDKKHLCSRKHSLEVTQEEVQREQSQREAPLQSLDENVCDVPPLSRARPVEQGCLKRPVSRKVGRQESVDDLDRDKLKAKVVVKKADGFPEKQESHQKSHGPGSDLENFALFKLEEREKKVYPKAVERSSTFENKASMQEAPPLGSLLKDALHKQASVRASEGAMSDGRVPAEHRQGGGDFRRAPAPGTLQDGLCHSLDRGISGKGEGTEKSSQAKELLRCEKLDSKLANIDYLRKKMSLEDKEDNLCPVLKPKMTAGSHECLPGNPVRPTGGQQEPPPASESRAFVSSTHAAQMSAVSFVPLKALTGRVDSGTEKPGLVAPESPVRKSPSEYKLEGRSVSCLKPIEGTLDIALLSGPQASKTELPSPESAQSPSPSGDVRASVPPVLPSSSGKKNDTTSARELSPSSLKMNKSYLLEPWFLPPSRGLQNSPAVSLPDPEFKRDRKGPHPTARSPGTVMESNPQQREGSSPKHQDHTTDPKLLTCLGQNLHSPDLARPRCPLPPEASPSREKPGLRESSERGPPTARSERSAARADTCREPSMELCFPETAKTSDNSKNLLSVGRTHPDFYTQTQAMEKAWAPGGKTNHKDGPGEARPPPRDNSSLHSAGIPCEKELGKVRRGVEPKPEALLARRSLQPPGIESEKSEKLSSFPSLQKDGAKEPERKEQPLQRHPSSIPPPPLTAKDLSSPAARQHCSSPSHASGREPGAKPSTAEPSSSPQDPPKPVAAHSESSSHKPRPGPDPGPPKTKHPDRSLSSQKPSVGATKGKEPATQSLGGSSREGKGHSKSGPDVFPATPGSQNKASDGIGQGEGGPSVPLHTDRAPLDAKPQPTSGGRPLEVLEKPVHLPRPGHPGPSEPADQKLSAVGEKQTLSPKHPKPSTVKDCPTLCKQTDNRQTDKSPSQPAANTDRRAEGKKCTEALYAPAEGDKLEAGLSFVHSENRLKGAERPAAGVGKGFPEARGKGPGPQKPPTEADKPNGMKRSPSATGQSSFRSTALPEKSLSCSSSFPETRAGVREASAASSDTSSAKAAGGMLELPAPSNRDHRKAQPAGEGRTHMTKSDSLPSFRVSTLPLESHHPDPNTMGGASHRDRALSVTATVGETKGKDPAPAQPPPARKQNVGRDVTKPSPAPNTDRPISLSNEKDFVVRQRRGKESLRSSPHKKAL
# [2] = biological target: Calcium/calmodulin-dependent protein kinase type II subunit gamma (Homo sapiens) (UniProt Q13555); assay: Inhibition of CaMK2g Lys2 labeling site in human Huh-7 cells at 1 uM by KiNativ Profiling analysis relative to control; format: cell-based
# Sequence of Calcium/calmodulin-dependent protein kinase type II subunit gamma (Homo sapiens) (Q13555 whole entry): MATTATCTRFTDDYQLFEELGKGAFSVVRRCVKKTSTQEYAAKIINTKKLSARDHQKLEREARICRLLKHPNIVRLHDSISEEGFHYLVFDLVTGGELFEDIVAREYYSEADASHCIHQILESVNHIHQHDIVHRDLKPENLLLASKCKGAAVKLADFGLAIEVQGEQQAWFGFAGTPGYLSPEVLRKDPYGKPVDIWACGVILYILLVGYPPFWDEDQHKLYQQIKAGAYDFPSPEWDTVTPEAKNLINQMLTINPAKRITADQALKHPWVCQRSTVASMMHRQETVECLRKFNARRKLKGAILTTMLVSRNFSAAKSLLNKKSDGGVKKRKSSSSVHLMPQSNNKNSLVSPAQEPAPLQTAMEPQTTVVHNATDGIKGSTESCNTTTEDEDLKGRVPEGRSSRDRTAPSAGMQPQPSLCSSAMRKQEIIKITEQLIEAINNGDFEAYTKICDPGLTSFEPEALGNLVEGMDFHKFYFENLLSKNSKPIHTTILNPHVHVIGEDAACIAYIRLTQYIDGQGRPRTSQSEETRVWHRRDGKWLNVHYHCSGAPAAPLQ
# [3] = Inhibition of KHS1 Lys2 labeling site harbouring DIKGANILLTDHGDVKLADFGVAAK in human Huh-7 cell lysate at 1 uM by KiNativ Profiling analysis relative to control; conditions: condition cancer
# [4] = biological target: Tyrosine-protein kinase CSK (Homo sapiens, UniProt P41240); assay: Inhibition of CSK ACT labeling site harbouring VSDFGLTKEASSTQDTGKLPVK in human A-375 cells at 0.5 uM by KiNativ Profiling analysis relative to control; format: cell-based
# Sequence of Tyrosine-protein kinase CSK (P41240 2-450 limits assumed): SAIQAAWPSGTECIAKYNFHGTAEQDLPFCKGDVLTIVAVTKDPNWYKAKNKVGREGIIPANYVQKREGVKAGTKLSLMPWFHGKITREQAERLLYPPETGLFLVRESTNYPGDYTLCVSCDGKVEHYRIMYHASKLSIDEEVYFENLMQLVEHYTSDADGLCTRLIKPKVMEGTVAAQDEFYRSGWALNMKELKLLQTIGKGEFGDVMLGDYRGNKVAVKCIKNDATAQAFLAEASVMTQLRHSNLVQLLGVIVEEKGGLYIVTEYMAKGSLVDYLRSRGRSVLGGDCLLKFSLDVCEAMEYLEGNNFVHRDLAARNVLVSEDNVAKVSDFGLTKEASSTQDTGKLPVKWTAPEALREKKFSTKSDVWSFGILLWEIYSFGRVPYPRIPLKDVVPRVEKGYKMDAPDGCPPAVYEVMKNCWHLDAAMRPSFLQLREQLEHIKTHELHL
# [5] = biological target: T1, PAN2-PAN3 deadenylation complex subunit PAN3 (Homo sapiens) (UniProt Q58A45); assay: Inhibition of PAN3 KD labeling site in human Huh-7 cells at 10 uM by KiNativ Profiling analysis relative to control; format: cell-based
# T1 sequence (whole entry): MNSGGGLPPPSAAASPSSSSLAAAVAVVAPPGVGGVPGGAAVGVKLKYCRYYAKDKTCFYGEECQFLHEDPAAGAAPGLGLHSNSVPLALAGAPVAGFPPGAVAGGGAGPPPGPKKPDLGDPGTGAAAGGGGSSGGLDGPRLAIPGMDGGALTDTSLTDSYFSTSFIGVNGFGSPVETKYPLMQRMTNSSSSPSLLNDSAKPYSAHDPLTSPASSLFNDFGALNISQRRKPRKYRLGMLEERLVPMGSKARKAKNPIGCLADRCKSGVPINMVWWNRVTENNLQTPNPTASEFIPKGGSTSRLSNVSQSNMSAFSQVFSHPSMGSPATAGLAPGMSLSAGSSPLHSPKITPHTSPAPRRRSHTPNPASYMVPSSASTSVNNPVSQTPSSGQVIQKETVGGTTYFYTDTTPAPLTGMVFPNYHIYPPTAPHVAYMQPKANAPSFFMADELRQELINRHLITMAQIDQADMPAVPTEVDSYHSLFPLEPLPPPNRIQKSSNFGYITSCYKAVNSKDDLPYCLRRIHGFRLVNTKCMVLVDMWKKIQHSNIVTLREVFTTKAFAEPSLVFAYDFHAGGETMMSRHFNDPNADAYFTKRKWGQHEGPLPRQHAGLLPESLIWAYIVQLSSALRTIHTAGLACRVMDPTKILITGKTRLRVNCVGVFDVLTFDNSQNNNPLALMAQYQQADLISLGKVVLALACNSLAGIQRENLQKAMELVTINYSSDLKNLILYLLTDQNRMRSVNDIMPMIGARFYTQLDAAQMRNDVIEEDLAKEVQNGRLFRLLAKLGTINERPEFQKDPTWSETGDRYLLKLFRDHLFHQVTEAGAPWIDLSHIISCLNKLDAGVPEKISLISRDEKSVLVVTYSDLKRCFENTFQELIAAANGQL
# [6] = biological target: T2, NUAK family SNF1-like kinase 2 (Homo sapiens) (UniProt Q9H093); assay: Inhibition of SNARK (unknown origin) at 10 uM by Ambit Kinomescan binding assay
# T2 sequence (whole entry): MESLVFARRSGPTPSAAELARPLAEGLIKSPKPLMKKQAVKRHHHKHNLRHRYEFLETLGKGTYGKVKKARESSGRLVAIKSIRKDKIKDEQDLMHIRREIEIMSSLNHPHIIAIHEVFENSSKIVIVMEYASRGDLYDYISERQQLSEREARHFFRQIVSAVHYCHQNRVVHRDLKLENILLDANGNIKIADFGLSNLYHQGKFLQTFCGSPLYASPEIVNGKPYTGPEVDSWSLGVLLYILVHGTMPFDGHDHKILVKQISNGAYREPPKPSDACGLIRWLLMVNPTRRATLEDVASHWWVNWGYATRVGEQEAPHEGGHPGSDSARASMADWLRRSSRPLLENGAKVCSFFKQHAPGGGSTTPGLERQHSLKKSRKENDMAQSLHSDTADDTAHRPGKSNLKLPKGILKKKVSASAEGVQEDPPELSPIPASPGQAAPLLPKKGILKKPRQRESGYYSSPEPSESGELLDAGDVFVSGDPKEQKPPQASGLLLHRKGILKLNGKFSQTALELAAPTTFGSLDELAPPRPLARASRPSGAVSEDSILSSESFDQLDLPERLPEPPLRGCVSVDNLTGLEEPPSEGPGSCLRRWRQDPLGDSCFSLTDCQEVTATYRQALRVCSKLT
# [7] = biological target: Protein kinase C epsilon type (Homo sapiens) (UniProt Q02156); assay: Inhibition of PRKCE (unknown origin) at 10 uM by Ambit Kinomescan binding assay relative to control
# [8] = biological target: Serine/threonine-protein kinase 16 (Homo sapiens) (UniProt O75716); assay: Inhibition of STK16 (unknown origin) at 10 uM by Ambit Kinomescan binding assay
# Sequence of Serine/threonine-protein kinase 16 (Homo sapiens) (O75716 whole entry, the tested form may be a part): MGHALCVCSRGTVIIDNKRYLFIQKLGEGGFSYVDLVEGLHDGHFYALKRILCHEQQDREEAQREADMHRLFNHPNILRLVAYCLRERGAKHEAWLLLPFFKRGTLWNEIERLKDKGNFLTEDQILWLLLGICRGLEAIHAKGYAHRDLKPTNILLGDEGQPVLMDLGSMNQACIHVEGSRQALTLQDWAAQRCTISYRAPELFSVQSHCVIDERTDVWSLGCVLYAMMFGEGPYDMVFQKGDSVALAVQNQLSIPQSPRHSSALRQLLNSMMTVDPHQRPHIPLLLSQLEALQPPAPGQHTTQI
# [9] = biological target: Ribosomal protein S6 kinase alpha-1 (Homo sapiens) (UniProt Q15418); assay: Inhibition of RSK1 domain1 Lys1 labeling site in human A-375 cells at 5 uM by KiNativ Profiling analysis relative to control; format: cell-based
# Sequence of Ribosomal protein S6 kinase alpha-1 (Homo sapiens) (Q15418 whole entry, the tested form may be a part): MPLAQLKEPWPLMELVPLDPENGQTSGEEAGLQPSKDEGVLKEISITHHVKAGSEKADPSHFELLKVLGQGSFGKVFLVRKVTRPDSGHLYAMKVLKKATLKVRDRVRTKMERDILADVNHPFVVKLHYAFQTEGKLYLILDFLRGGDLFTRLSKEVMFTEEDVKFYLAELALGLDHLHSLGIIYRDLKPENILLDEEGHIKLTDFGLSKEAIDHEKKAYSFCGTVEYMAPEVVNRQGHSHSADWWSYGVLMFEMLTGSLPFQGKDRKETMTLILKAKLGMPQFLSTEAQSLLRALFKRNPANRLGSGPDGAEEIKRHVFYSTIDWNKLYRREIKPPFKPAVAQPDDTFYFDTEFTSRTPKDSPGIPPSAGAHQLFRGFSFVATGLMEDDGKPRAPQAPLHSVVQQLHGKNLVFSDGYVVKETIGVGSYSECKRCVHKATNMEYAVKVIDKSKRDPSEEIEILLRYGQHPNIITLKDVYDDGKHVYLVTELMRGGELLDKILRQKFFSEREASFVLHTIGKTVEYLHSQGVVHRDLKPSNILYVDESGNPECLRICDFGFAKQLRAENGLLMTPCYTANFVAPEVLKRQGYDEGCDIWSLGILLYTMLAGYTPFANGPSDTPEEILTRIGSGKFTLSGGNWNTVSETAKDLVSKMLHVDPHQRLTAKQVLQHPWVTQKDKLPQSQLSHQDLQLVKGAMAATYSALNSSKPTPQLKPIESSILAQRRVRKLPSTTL
# [10] = biological target: Serine/threonine-protein kinase 38-like (Homo sapiens) (UniProt Q9Y2H1); assay: Inhibition of NDR2 (unknown origin) at 10 uM by Ambit Kinomescan binding assay relative to control
# [11] = system: Epidermal growth factor receptor (Homo sapiens), P00533 [UNDEFINED MUTATION]; assay: Inhibition of EGFR E746-A750del mutant (unknown origin) at 1 uM by Ambit Kinomescan binding assay relative to control
# [12] = biological target: Cyclin-dependent kinase 11B (Homo sapiens) (UniProt P21127); assay: Inhibition of CDK11 (unknown origin) at 1 uM by Ambit Kinomescan binding assay relative to control
# [13] = biological target: Phosphatidylinositol 4-phosphate 5-kinase type-1 gamma (Homo sapiens) (UniProt O60331); assay: Inhibition of PIP5K1C (unknown origin) at 1 uM by Ambit Kinomescan binding assay relative to control; values are per cent of control
# [14] = biological target: Dual specificity tyrosine-phosphorylation-regulated kinase 2 (Homo sapiens) (UniProt Q92630); assay: Inhibition of DYRK2 (unknown origin) at 1 uM by Ambit Kinomescan binding assay relative to control; values are per cent of control
compound,measurement,setting,value
CNc1cc(Oc2cc(C(=O)Nc3cc(N4CCN(C)CC4)cc(C(F)(F)F)c3)ccc2C)ncn1,inhibition,[1],30.2%
same,inhibition,[2],20.3%
same,inhibition at 1 µM,[3],10.4%
CCN1CCN(Cc2ccc(NC(=O)c3ccc(C)c(Oc4ccnc5[nH]ccc45)c3)cc2C(F)(F)F)CC1,inhibition,[4],36.5%
same,inhibition,[5],4.5%
same,inhibition,[6],inactive
same,inhibition,[7],20%
same,inhibition,[8],inactive
same,inhibition,[9],-8.6%
same,inhibition,[10],6.8%
CCN1CCN(Cc2ccc(NC(=O)c3ccc(C)c(/C=C/c4cnc5[nH]ccc5c4OC)c3)cc2C(F)(F)F)CC1,inhibition,[11],0.7%
same,inhibition,[12],27%
same,percent of control,[13],100%
same,residual activity,[14],68%
